The conditions of assay [1]: normobaric conditions, cited from earlier work.
Assay [2] deals with injured retinal ganglion cells. Nature of the assay: Annexin V-PeCy7 flow cytometric evaluation of early apoptosis in injured retinal ganglion cells after unilateral optic nerve axotomy. In kind it is in vivo, B6.Cg-Tg(Thy1-YFP)16Jrs/J mice. An excerpt:
B6.Cg-Tg(Thy1-YFP)16Jrs/J mice: Thy1-YFP mice were exposed to a vapor anesthetic agent (Isofluorane or Sevofluorane), in an anesthetic induction chamber. Animals were temperature probed, sterile eye lubricant was applied to prevent corneal damage, and an incision was made adjacent to the orbital ridge. The left orbit was exposed, and the lacrimal gland gently resected and covered with saline soaked gauze. […] Using microscissors, the dura was resected, and the optic nerve was transected approximately 0.5 mm from the posterior aspect of the eye bulb. Preservation of blood supply was evaluated through the dissecting microscope focused through a dilated pupil and a coverslip. The skin was closed with suture clips, analgesics (buprenorphine in saline) administered, and the mouse was transferred to an Argon (70%)/Oxygen (30%) perfused air chamber on a warming mat. […] Control mice were exposed to normal atmospheric conditions post-injury (See FIG. 1). Internal surgical controls were the uninjured retina of the contralateral eye.
Retinal Dissection, dissociation, and staining of cells: Mice were lightly anesthetized with Isofluorane and killed via cervical dislocation. Eyes were rapidly removed and placed in ice cold Hank's Balanced Salt Solution (HBSS). A single puncture to the conjunctiva was made, and corneas removed by microdissection. The ciliary epithelium and lens were then resected, and vitreous humor was visualized using triamcinolone acetonide solution to aid in removal by aspiration and microdissection. Free floating retinas were then transferred to fresh HBSS on ice, then transferred to 1 ml of enzyme solution containing Trypsin (MACS—Miltenyi Biotec). Following a 15 minute incubation at 37 degrees C. with periodic agitation, retinas were dissociated with fire polished pipettes and centrifuged. Pellets were washed in Annexin V binding buffer, and centrifuged. Pellets were the re-dissociated in DNAse-containing binding buffer, and stained for Annexin V-PeCy7 probe. Cells were washed, cell strained (40 um), and analyzed using a BD FacsAria III flow cytometer.
Flow cytometry and data analysis: Compensation and gating was established using unstained, YFP-only, Annexin V-only, and double-labeled cell samples. Dead cell assays (not shown) were also performed using propidium iodide and 7-AAD DNA intercalating dyes. Forward and side scatter gating were used to exclude debris, and YFP-positive cells were gated and used as the reference population. Quadrant analysis was used to identify and quantify Annexin V labeling within YFP expressing cells across groups. A within-subjects comparison was performed by comparing injured and uninjured retinas from the same animal. Difference scores (uninjured—injured Annexin V cell counts) were produced in order to normalize Annexin V background labeling in right eyes. All data are represented as means +/−1.0 standard error of the mean.
For orientation: A flow cytometer gives signals particle by particle.

`[Ar]` [argon]: the anesthetic effects result in assay [1] (high inspiratory concentrations) is reported as “does not provide anesthetic effects”. Besides, in assay [2] (24 h post-injury, Argon (70%)/Oxygen (30%) chamber after surgery under Isofluorane or Sevofluorane, buprenorphine), the “difference score (uninjured - injured Annexin V cell counts within YFP-positive population)” value is listed as “positive difference score”. In assay [2] (48 h post-injury, Argon (70%)/Oxygen (30%) chamber post-injury), the “Annexin V binding in injured retinas” value is “strong resistance to Annexin V binding”. In addition, the neuroprotection result in assay [2] (72 hours post-injury) is reported as “retained at 72 hours”. In addition, in assay [2] (overall conclusion from the data), the “neuroprotective effect in combination with liquid anesthetics” value was “provides a neuroprotective effect within the central nervous system”. In addition, the “time of peak of neuroprotection effect size” value in assay [2] (post-injury, Argon (70%)/Oxygen (30%)) was “around 48 h”.

As to `[Xe]` [Xenon, xenon, reference compound], the “concentration with capacity to provide anesthesia” value in assay [1] was 71%.
